From US20240041023A1, “COMPOSITION AND METHOD OF PRESERVING VIABILITY OF CELL IN A LOW TEMPERATURE” (THE UNITED STATES OF AMERICA, AS REPRESENTED BY THE …, priority 2020, published 2024)
“Also recorded” adds a separate entry of the source.

What was measured:
[1] = test system: mouse pancreatic islets; experiment: Cold survival of mouse pancreatic islets in preservation solutions; format: cell-based; details: N-EM added into UW solution, 2-D08 or ginkgolic acid added into HS solution
Description: (§1) N-EM and protease inhibitors are added into HS to make HS+.

[2] = test system: FOXO1; experiment: FOXO1-dependent survival pathway and FOXO1 nuclear entry in cold stored mouse islets; format: cell-based; details: mouse pancreatic islets; inhibitor added to HS solution
Description: as §1

[3] = test system: human islets; experiment: Cold storage of human islets; format: cell-based; details: prolonged cold storage
[4] = test system: FOXO1; experiment: FOXO1 nuclear entry in corneal endothelial cells after anterior chamber injection (immunofluorescence); format: in vivo, rat; details: 6-month-old rats
[5] = test system: rat corneal endothelial cells; experiment: Cold preservation of rat cornea: endothelial cell mortality (PI positive cells) and immunofluorescence staining; format: cell-based; details: 6-month-old rat cornea
Description: After injection of 0.5 μL C6 solution (10 μM/μL in goat serum solvent) into the anterior chamber of the eye through the limbal stroma. After 90 minutes, the cornea was taken and cold stored in a corneal preservation solution. After cold storage for 3 weeks and 4 weeks, the cold storage results were evaluated by immunofluorescence staining.
The corneal preservation solution of this example is the novel corneal preservation solution prepared in Example 3, with 20 μM C6 and the protease inhibitor mixture Pi (as described in WO2019/040359A1) added, and the final concentrations of the components in the protease inhibitor mixture Pi in the cold preservation solution are respectively: pepstatin 1 μM; leupeptin 2 μM; bestatin 5 μM; […] 0.5 μM; aprotinin 0.08 μM; AEBSF 100 μM.
0.5 μL of Apigenin solution (concentration 4 μM/μL, in goat serum solvent) was injected into the anterior chamber through the limbal stroma, and 20 minutes later, the cornea was removed and stored in the novel preservation solution prepared in Example 3 (with 4 μM Apigenin and Pi previously added). After cold storage for 3 weeks and 4 weeks, the cold storage results were evaluated by immunofluorescence staining.

[6] = test system: mice pancreatic islets; experiment: Mouse pancreatic islets stored at 4° C. versus 1640 culture solution; format: cell-based; details: mice pancreatic islets stored at 4° C.; C6 and Apigenin added to the novel preservation solution (MM)
Description: In another example, mice pancreatic islets were extracted and stored at 4° C. in cold storage. The conventional 1640 culture solution which is commonly used is used as a control group.

[7] = after anterior chamber injection (C6 20 μM/μL, Apigenin 4 μM/μL, goat serum solvent), before cold stimulation
[8] = after anterior chamber injection and cold stimulation

Row | Compound | islet cold survival / islet cell death [1] | cold-induced FOXO1 nuclear entry [2] | FOXO1 nucleus entry in corneal endothelial cells [4, 7] | FOXO1 nucleus entry in corneal endothelial cells [4, 8] | corneal endothelial cell death, in words ([5]; cold preservation 3 weeks) | islet cell death [6] | further results
1 | ginkgolic acid | islet cell death became severe | repressed |  |  |  |  | 
2 | CCN1C(=O)C=CC1=O [N-Ethylmaleimide] | enables longer term cold storage; also recorded: islet cold survival is improved |  |  |  |  |  | outcome of cold storage of human islets [3]: enables longer term cold storage
3 | O=c1cc(-c2ccc(O)c(O)c2O)oc2ccccc12 [2-D08] | islet cell death became severe | repressed |  |  |  |  | 
4 | O=c1cc(-c2ccc(O)cc2)oc2cc(O)cc(O)c12 [Apigenin] |  |  | did not cause FOXO1 to enter nucleus | activated FOXO1 to enter the nucleus | decreased mortality | further reduced the number of dead cells | FOXO1 nucleus entry in corneal endothelial cells ([4]; after cold stimulation and rewarming): weak nuclear entering effect is still maintained; corneal endothelial cell death, in words ([5]; cold storage 4 weeks): significantly reduced; corneal endothelium structure (hexagonal structure, F-actin, nuclei) ([5]; cold storage 4 weeks (28 days, 4° C.)): largely intact endothelium
5 | CCCCCCCCCCCCC/C=C/[C@@H](O)[C@H](CO)NC(=O)CCCCC [C6, C6 ceramide] |  |  | activate FOXO1 nucleus entry | nucleus entry signal was enhanced | reduction in the number of dead corneal endothelial cells | further reduced the number of dead cells | 
